This is an account of results in patent US9169254B2, “Spiroimidazolone derivative” (Chugai Seiyaku Kabushiki Kaisha, priority 2009, dated 2015).

For this assay, the target named is T1, human PTH1 receptor (Homo sapiens, UniProt Q03431).
T1 sequence (Q03431 27-593): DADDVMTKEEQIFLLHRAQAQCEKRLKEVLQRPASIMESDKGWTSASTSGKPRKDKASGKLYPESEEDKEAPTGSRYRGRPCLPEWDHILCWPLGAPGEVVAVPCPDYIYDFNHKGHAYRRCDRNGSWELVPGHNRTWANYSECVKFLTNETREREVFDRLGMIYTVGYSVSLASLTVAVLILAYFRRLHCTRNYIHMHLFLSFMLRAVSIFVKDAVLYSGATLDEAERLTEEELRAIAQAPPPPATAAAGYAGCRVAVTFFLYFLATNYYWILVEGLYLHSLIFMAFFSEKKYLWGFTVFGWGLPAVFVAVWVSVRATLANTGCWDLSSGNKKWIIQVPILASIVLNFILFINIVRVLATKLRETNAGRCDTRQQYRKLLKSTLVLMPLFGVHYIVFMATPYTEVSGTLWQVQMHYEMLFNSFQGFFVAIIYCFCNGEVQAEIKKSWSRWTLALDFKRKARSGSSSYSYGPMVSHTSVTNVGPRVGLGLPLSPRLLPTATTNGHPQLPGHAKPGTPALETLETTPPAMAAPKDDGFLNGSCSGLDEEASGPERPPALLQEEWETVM
The assay can be described thus: In vitro cAMP signal activity in HKRK-B7 cells (LLC-PK1 cells overexpressing the human PTH1 receptor). It is filed as cell-based. Particulars: HKRK-B7 cells; compound at 1×10^−3 M; cAMP produced as percentage of that produced by hPTH(1-34) at 100 nM.
Consider `Cc1cc(NCC(=O)N2CCN(C)CC2)ccc1CCS(=O)(=O)N1CCC2(CC1)N=C(c1cccc(OC(F)(F)F)c1)NC2=O` [Compound 845, 8-(2-{2-methyl-4-[2-(4-methyl-piperazin-1-yl)-2-oxo-ethylamino]-phenyl}-ethanesulfonyl)-2-(3-trifluoromethoxy-phenyl)-1,3,8-triaza-spiro[4.5]dec-1-en-4-one], for which the “cAMP production activity (%)” value is reported as 68%.

Regarding `Cc1cc(N(C)C(N)=O)cc(C)c1CCS(=O)(=O)N1CCC2(CC1)N=C(C1CCC(CC=C(F)F)CC1)NC2=O` (stereo not drawn) [Compound 940, 1-[4-(2-{2-[4-(3,3-difluoro-allyl)-cyclohexyl]-4-oxo-1,3,8-triaza-spiro[4.5]dec-1-ene-8-sulfonyl}-ethyl)-3,5-dimethyl-phenyl]-1-methyl-urea], the “cAMP production activity (%)” value was determined as 86%. As for `Cc1cc2ccc1CCS(=O)(=O)N1CCC3(CC1)N=C(NC3=O)c1cc(cc(C(F)(F)F)c1)OCCOCCOCCN(C)C2=O` [Compound 1438], the figure is 40%; as for `CC(=O)N(C)Cc1cc(C)c(/C=C/S(=O)(=O)N2CCC3(CC2)N=C(C2CCC(CCC(F)(F)F)CC2)NC3=O)c(C)c1` (stereo not drawn) [Compound 559, N-[3,5-dimethyl-4-((E)-2-{4-oxo-2-[4-(3,3,3-trifluoro-propyl)-cyclohexyl]-1,3,8-triaza-spiro[4.5]dec-1-ene-8-sulfonyl}-vinyl)-benzyl]-N-methyl-acetamide], 72%; as for `Cc1cc(OCCC(O)CO)ccc1/C=C/S(=O)(=O)N1CCC2(CC1)N=C(c1ccc(F)c(OC(F)(F)F)c1)NC2=O` (stereo not drawn) [Compound 1166, 8-{(E)-2-[4-(3,4-Dihydroxy-butoxy)-2-methyl-phenyl]-ethenesulfonyl}-2-(4-fluoro-3-trifluoromethoxy-phenyl)-1,3,8-triaza-spiro[4.5]dec-1-en-4-one], 144%. On to `Cc1cc(C(=O)N(C)C)ccc1CCS(=O)(=O)N1CCC2(CC1)N=C(N(C)Cc1ccccc1)NC2=O` [Compound 1398, 4-{2-[2-(benzyl-methyl-amino)-4-oxo-1,3,8-triaza-spiro[4.5]dec-1-ene-8-sulfonyl]-ethyl}-3,N,N-trimethyl-benzamide], for which the “cAMP production activity (%)” value was determined as 77%. As for `Cc1cc(C(=O)N2CCN(C)CC2)ccc1CCS(=O)(=O)N1CCC2(CC1)N=C(c1cccc(OC(F)(F)F)c1)NC2=O` [Compound 843, 8-{2-[2-methyl-4-(4-methyl-piperazine-1-carbonyl)-phenyl]-ethanesulfonyl}-2-(3-trifluoromethoxy-phenyl)-1,3,8-triaza-spiro[4.5]dec-1-en-4-one], the figure is 77%; as for `O=C1NC(C2CCCCC2)=NC12CCN(S(=O)(=O)CCc1nccs1)CC2` [Compound 345, 2-Cyclohexyl-8-(2-thiazol-2-yl-ethanesulfonyl)-1,3,8-triaza-spiro[4.5]dec-1-en-4-one], 21%.

As to `Cc1cc(C(=O)N2CCC(C)(O)CC2)cc(C)c1CCS(=O)(=O)N1CCC2(CC1)N=C(c1ccc(OC(F)(F)F)cc1)NC2=O` [Compound 1234, 8-{2-[4-(4-hydroxy-4-methyl-piperidine-1-carbonyl)-2,6-dimethyl-phenyl]-ethanesulfonyl}-2-(4-trifluoromethoxy-phenyl)-1,3,8-triaza-spiro[4.5]dec-1-en-4-one], the “cAMP production activity (%)” value amounted to 114%. As to `CN(C)C(=O)Nc1ccc(CCS(=O)(=O)N2CCC3(CC2)N=C(C2CCCCC2)NC3=O)c(C(F)(F)F)c1` [Compound 273, 3-{4-[2-(2-cyclohexyl-4-oxo-1,3,8-triaza-spiro[4.5]dec-1-ene-8-sulfonyl)-ethyl]-3-trifluoromethyl-phenyl}-1,1-dimethyl-urea], the “cAMP production activity (%)” value is recorded as 55%.

As to `Cc1cc(N2C(=O)NC(CO)C2=O)cc(C)c1CCS(=O)(=O)N1CCC2(CC1)N=C([C@H]1CC[C@H](C)CC1)NC2=O` (stereo partly drawn) [Compound 1299, 3-(3,5-Dimethyl-4-{2-[2-(4-methyl-cyclohexyl)-4-oxo-1,3,8-triaza-spiro[4.5]dec-1-ene-8-sulfonyl]-ethyl}-phenyl)-5-hydroxymethyl-imidazolidine-2,4-dione], the “cAMP production activity (%)” value turned out to be 87%. Then `Cc1c(/C=C/S(=O)(=O)N2CCC3(CC2)N=C(c2cccc(OC(F)(F)F)c2)NC3=O)cccc1OCCC(O)CO` (stereo not drawn) [Compound 254, 8-{(E)-2-[3-(3,4-Dihydroxy-butoxy)-2-methyl-phenyl]-ethenesulfonyl}-2-(3-trifluoromethoxy-phenyl)-1,3,8-triaza-spiro[4.5]dec-1-en-4-one], with 97%; and `CCCCCCCCCC1=NC2(CCN(S(=O)(=O)/C=C/c3c(C)cc(N4C(=O)CNC4=O)cc3C)CC2)C(=O)N1` [Compound 539, 3-{3,5-dimethyl-4-[(E)-2-(2-nonyl-4-oxo-1,3,8-triaza-spiro[4.5]dec-1-ene-8-sulfonyl)-vinyl]-phenyl}-imidazolidine-2,4-dione], with 80%; and `CCCCCCCCCCCCCC1=NC2(CCN([S@TB18](=O)(=O)CCc3c(C)cc(N(C)C(N)=O)cc3C)CC2)C(=O)N1` [Compound 1140, 1-{3,5-dimethyl-4-[2-(4-oxo-2-tridecyl-1,3,8-triaza-spiro[4.5]dec-1-ene-8-sulfonyl)-ethyl]-phenyl}-1-methyl-urea], with 55%.

With `CCOCCCCCCC1=NC2(CCN([S@TB18](=O)(=O)/C=C/c3c(C)cc(N(C)C(N)=O)cc3C)CC2)C(=O)N1` [Compound 1115, 1-(4-{(E)-2-[2-(6-ethoxy-hexyl)-4-oxo-1,3,8-triaza-spiro[4.5]dec-1-ene-8-sulfonyl]-vinyl}-3,5-dimethyl-phenyl)-1-methyl-urea], the “cAMP production activity (%)” value was 140%.

Take `Cc1cc(N2C(=O)CC[C@@H]2CN(C)C)cc(C)c1/C=C/S(=O)(=O)N1CCC2(CC1)N=C(c1cccc(OC(F)(F)F)c1)NC2=O` [Compound 611, 8-{(E)-2-[4-((R)-2-dimethylaminomethyl-5-oxo-pyrrolidin-1-yl)-2,6-dimethyl-phenyl]-ethenesulfonyl}-2-(3-trifluoromethoxy-phenyl)-1,3,8-triaza-spiro[4.5]dec-1-en-4-one]: the “cAMP production activity (%)” value was 82%. Then `CC(=O)N(CCO)c1ccc(/C=C/S(=O)(=O)N2CCC3(CC2)N=C(c2cccc(C(F)(F)F)c2F)NC3=O)c(C)c1` [Compound 259, N-(4-{(E)-2-[2-(2-Fluoro-3-trifluoromethyl-phenyl)-4-oxo-1,3,8-triaza-spiro[4.5]dec-1-ene-8-sulfonyl]-vinyl}-3-methyl-phenyl)-N-(2-hydroxy-ethyl)-acetamide], with 67%.

As to `CC(=O)N(CCO)c1ccc(C)c(/C=C/S(=O)(=O)N2CCC3(CC2)N=C(c2cccc(OC(F)(F)F)c2)NC3=O)c1` [Compound 257, N-(2-hydroxy-ethyl)-N-(4-methyl-3-{(E)-2-[4-oxo-2-(3-trifluoromethoxy-phenyl)-1,3,8-triaza-spiro[4.5]dec-1-ene-8-sulfonyl]-vinyl}-phenyl)-acetamide], the “cAMP production activity (%)” value is given as 42%. Then `CC(=O)Nc1ccc(CCS(=O)(=O)N2CCC3(CC2)N=C(C2CC(C)(C)CC(C)(C)C2)NC3=O)c(C)c1` [Compound 926, N-(3-methyl-4-{2-[4-oxo-2-(3,3,5,5-tetramethyl-cyclohexyl)-1,3,8-triaza-spiro[4.5]dec-1-ene-8-sulfonyl]-ethyl}-phenyl)-acetamide], with 102%; and `O=C1NC(C2CCCCC2)=NC12CCN(S(=O)(=O)/C=C/C1CCCC1)CC2` [Compound 344, 2-cyclohexyl-8-((E)-2-cyclopentyl-ethenesulfonyl)-1,3,8-triaza-spiro[4.5]dec-1-en-4-one], with 35%. As to `Cc1cc(NS(=O)(=O)N(C)C)ccc1/C=C/S(=O)(=O)N1CCC2(CC1)N=C(C1CCCCC1)NC2=O` [Compound 568, N-{4-[(E)-2-(2-cyclohexyl-4-oxo-1,3,8-triaza-spiro[4.5]dec-1-ene-8-sulfonyl)-vinyl]-3-methyl-phenyl}-N′,N′-dimethyl-sulfamide], the “cAMP production activity (%)” value is reported as 39%. As for `CN(C)CCn1ccc2c(CCS(=O)(=O)N3CCC4(CC3)N=C(C3CCCCC3)NC4=O)cccc21` [Compound 313, 2-cyclohexyl-8-{2-[1-(2-dimethylamino-ethyl)-1H-indol-4-yl]-ethanesulfonyl}-1,3,8-triaza-spiro[4.5]dec-1-en-4-one], the figure is 63%. For `Cc1cc(C(=O)N2CCC(O)(CF)CC2)cc(C)c1/C=C/S(=O)(=O)N1CCC2(CC1)N=C(c1ccc(C(F)F)c(F)c1)NC2=O` [Compound 1255, 2-(4-difluoromethyl-3-fluoro-phenyl)-8-{(E)-2-[4-(4-fluoromethyl-4-hydroxy-piperidine-1-carbonyl)-2,6-dimethyl-phenyl]-ethenesulfonyl}-1,3,8-triaza-spiro[4.5]dec-1-en-4-one], the “cAMP production activity (%)” value amounted to 66%. As for `Cc1cc(C(=O)N(C)C)ccc1CCS(=O)(=O)N1CCC2(CC1)N=C(CCC1CCCCC1)NC2=O` [Compound 108, 4-{2-[2-(2-cyclohexyl-ethyl)-4-oxo-1,3,8-triaza-spiro[4.5]dec-1-ene-8-sulfonyl]-ethyl}-3,N,N-trimethyl-benzamide], the figure is 62%.
